Where two headings read alike, the source gives them in different places.
How the values were obtained:
[1] = biological target: DYRK1B (Homo sapiens (Human), UniProt Q9Y463); experiment: DYRK1B kinase assay (HotSpot, Reaction Biology); assay type: biochemical
[2] = biological target: DYRK1A (Homo sapiens (Human), UniProt Q13627); experiment: DYRK1A kinase assay (HotSpot, Reaction Biology); assay type: biochemical; details: purified recombinant kinase, 10 μM ATP, room temperature 120 min
[3] = purified recombinant kinase, 10 μM ATP, room temperature 120 min

DYRK1B, sequence (Q9Y463 whole entry): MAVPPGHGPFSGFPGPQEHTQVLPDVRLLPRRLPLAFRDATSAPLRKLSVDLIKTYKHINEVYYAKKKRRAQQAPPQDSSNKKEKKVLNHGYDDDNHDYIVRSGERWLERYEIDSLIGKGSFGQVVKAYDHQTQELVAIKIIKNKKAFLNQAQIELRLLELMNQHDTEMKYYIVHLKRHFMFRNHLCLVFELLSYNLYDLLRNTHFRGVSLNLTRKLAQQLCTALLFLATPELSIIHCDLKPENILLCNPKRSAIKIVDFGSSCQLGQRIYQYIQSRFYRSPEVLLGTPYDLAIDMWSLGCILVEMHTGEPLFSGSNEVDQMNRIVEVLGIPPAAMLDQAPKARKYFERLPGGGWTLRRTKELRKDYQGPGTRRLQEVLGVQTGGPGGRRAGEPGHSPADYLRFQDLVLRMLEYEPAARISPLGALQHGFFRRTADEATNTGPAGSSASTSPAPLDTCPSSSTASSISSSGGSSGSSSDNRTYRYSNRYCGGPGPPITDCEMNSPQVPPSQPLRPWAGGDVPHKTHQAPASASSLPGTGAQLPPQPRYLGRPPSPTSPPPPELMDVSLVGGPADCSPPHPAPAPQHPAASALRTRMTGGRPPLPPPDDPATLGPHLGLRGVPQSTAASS

COC(=N)c1nc2ccc3ncnc(Nc4ccc(C(F)(F)F)cc4)c3c2s1 [Compound 80, Methyl 9-(4-(trifluoromethyl)phenylamino)thiazolo[5,4-f]quinazoline-2-carbimidate]
IC50 [1, 3]: 25.2 nM | IC50 [2]: 18.3 nM

CCOC(=N)c1nc2ccc3ncnc(Nc4ccc(Br)cc4F)c3c2s1 [Compound 81, Ethyl 9-(4-bromo-2-fluorophenylamino)thiazolo[5,4-f]quinazoline-2-carbimidate]
IC50 [1, 3]: 34.4 nM | IC50 [2]: 33.2 nM

CCOC(=N)c1nc2ccc3ncnc(Nc4ccc5c(c4)OCO5)c3c2s1 [Compound 82, Ethyl 9-(benzo[d][1,3]dioxol-5-ylamino)thiazolo[5,4-j]quinazoline-2-carbimidate]
IC50 [1, 3]: 7.72 nM | IC50 [2]: 6.02 nM

N=C(OCc1ccccc1)c1nc2ccc3ncnc(Nc4ccc5c(c4)OCO5)c3c2s1 [Compound 83, benzyl 9-(benzo[d][1,3]dioxol-5-ylamino)thiazolo[5,4-f]quinazoline-2-carbimidate]
IC50 [1, 3]: 37.3 nM | IC50 [2]: 33.9 nM

CC(C)OC(=N)c1nc2ccc3ncnc(Nc4ccc5c(c4)OCO5)c3c2s1 [Compound 85, isopropyl 9-(benzo[d][1,3]dioxol-5-ylamino)thiazolo[5,4-f]quinazoline-2-carbimidate]
IC50 [1]: 218 nM | IC50 [2]: 125 nM

NC(=O)c1nc2ccc3ncnc(Nc4ccc(F)cc4Br)c3c2s1 [Compound 86, 9-((2-bromo-4-fluorophenyl)amino)thiazolo[5,4-f]quinazoline-2-carboxamide]
IC50 [1, 3]: 31.5 nM | IC50 [2]: 26.2 nM

NC(=O)c1nc2ccc3ncnc(Nc4ccc(Cl)cc4Cl)c3c2s1 [Compound 87, 9-((2,4-dichlorophenyl)amino)thiazolo[5,4-f]quinazoline-2-carboxamide]
IC50 [1, 3]: 43.4 nM | IC50 [2]: 34.9 nM

CCCCOC(=N)c1nc2ccc3ncnc(Nc4ccc(Cl)cc4Cl)c3c2s1 [Compound 88, butyl 9-((2,4-dichlorophenyl)amino)thiazolo[5,4-f]quinazoline-2-carbimidate]
IC50 [1, 3]: 69.4 nM | IC50 [2]: 47.5 nM

COC(=O)c1nc2ccc3ncnc(Nc4ccc(Cl)cc4Cl)c3c2s1 [Compound 89, methyl 9-((2,4-dichlorophenyl)amino)thiazolo[5,4-f]quinazoline-2-carboxylate]
IC50 [1, 3]: 7.7 nM | IC50 [2]: 5.1 nM

CC(C)(C)CNc1ncnc2ccc(-c3ccc4c(c3)OCO4)cc12 [NCGC-00189310, reference compound]
IC50 [1, 3]: 20.6 nM | IC50 [2]: 2.2 nM

— patent US9446044B2, “DYRK1 inhibitors and uses thereof” (DIAXONHIT, priority 2011, dated 2016)
